Reference: patent US20050244490A1, “Dosing methods for beta-D-2',3'-dideoxy-2',3'-didehydro-5-fluorocytidine antiviral therapy” (priority 2003, published 2005)
Like-named read-outs stand apart in the source and are kept apart here.

What was measured:
[1] = system: acutely HIV-1 infected human PBM cells; assay: Median effect / combination index study with Racivir; format: cell-based; details: Human immunodeficiency virus 1, PBMC, 120 h
HIV viral load [2] = assay: Viral load decline on repeated dosing, β-D-D4FC and competing nucleosides; format: in vivo; details: 200 to 600 mg QD, duration of dosing 14; not monotherapy, in combination with EFV & D4T
HIV viral load [3] = details: cited from earlier work
[4] = pbmc
[5] = human, in vivo
wild type HIV-RT = molecular target: T1, wild type HIV-RT (Human immunodeficiency virus type 1 group M subtype B, UniProt P04585); assay: Ki / Km for wild type HIV-RT; format: biochemical, HIV-1
T1 construct: The Ki value for β-D-D4FC-TP for wild type HIV-RT

clinical = details: in vivo
M184V mutant RT = M184V mutant RT (Human immunodeficiency virus type 1 group M subtype B, UniProt P04585, M771V); assay: biochemical; format: biochemical, HIV-1
[6] = system: AZT/3TC-resistant HIV-1 recombinant viruses; assay: microbe, parasite or virus in culture; format: cell-based; details: Human immunodeficiency virus 1, read-out: Average IC90 for AZT/3TC-R virus
Description: A panel of 22 viruses was constructed in the HXB2 background using the Protease and RT sequences from clinical isolates to determine Virco Profiling against recombinant clinical isolates (see FIGS. 7a and 7b). Viruses contained 2 to 17 mutations in RT frequently associated with nucleoside resistance, including: M184V, M41L, D67N, T215Y. IC50 values were determined using a high through-put reporter virus assay.

DNA Pol γ = molecular target: T2, DNA Pol γ (Homo sapiens, UniProt P54098); assay: Inhibition of pure DNA polymerase γ by nucleoside triphosphates; format: biochemical; details: tritiated dCTP incorporation
T2 sequence (P54098 1-1239): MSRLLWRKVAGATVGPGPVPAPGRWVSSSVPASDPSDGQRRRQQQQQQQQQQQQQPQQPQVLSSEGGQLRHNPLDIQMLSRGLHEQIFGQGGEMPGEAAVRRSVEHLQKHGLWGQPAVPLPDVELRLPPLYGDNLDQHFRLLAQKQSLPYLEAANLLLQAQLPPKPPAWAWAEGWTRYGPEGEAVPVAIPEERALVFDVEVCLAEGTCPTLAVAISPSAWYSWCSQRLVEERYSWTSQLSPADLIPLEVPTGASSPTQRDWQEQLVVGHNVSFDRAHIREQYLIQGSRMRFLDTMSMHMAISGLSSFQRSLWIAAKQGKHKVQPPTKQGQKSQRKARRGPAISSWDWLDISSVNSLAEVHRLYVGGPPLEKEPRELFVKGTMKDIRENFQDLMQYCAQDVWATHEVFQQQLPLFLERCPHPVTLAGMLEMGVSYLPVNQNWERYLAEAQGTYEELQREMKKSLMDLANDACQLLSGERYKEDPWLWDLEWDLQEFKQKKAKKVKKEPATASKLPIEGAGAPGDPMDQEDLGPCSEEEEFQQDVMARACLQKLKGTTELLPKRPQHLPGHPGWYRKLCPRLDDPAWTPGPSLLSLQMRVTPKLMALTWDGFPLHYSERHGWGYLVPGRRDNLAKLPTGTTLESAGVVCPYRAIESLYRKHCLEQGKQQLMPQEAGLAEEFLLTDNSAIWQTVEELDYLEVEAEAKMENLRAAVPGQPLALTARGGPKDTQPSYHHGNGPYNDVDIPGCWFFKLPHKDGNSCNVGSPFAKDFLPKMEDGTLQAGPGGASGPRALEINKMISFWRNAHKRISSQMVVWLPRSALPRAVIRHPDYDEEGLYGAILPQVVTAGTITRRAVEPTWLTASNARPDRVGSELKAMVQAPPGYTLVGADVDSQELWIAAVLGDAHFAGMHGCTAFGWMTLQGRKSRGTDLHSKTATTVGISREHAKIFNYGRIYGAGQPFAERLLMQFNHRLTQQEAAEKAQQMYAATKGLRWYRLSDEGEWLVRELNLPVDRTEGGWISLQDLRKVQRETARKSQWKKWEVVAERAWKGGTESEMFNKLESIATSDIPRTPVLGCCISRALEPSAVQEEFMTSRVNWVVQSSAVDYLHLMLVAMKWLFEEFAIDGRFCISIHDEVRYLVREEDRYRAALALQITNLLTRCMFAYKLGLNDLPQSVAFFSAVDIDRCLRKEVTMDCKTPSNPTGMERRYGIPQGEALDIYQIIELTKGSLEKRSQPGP
Description: (§1) Triphosphates of nucleosides were tested against pure polymerases using tritiated dCTP incorporation.

HIV RT = molecular target: T3, HIV RT (Human immunodeficiency virus type 1 group M subtype B, UniProt P04585); assay: Inhibition of purified HIV-1 reverse transcriptase by nucleoside triphosphates (tritiated dCTP incorporation); format: biochemical
T3 construct: purified HIV-1 reverse transcriptase (RT)
Description: An assay was performed to determine the ability of β-D-D4FC-triphosphate to terminate polymerization catalyzed by purified HIV-1 reverse transcriptase (RT). […] The target concentration is that concentration where most mutant variants tested are suppressed by 90% or more. The concentration of 5 μM is the target plasma concentration as most, mutant variants tested were suppressed ≧90% in vitro.
as §1

[7] = Intracellular phosphorylation and triphosphate half-life in PBMCs
DNA Pol β = DNA Pol β (Homo sapiens, UniProt P06746); assay: Inhibition of pure DNA polymerase β by nucleoside triphosphates; format: biochemical; details: tritiated dCTP incorporation
Description: as §1

SMILES: Nc1nc(=O)n(C2CSC(CO)O2)cc1F (stereo not drawn) [Racivir, reference compound]
- EC90 ([1]; Day 5, assays (1), (2), (3), read-out: EC90): 170 nM
- Viral Load Decline (log) (HIV viral load [2]): −2.02 to −2.43 log

SMILES: Nc1nc(=O)n([C@@H]2CS[C@H](CO)O2)cc1F [FTC, β-L-2′,3′-dideoxy-3′-thia-5-fluorocytidine]
- Viral Load Decline (log) (HIV viral load [3]; 200 mg QD, duration of dosing 12): −1.7 log

SMILES: Cc1cn([C@H]2C[C@H](F)[C@@H](CO)O2)c(=O)[nH]c1=O [FLT]
- Viral Load Decline (log) (HIV viral load [3]; 7.5 mg QD, duration of dosing 28, add-on study in experienced patients): −1.88 log

SMILES: C[C@H](Cn1cnc2c(N)ncnc21)OCP(=O)(O)O [TFV]
- Viral Load Decline (log) (HIV viral load [3]; 300 mg QD, duration of dosing 28): −1.57 log

SMILES: Nc1ccn([C@H]2CO[C@@H](CO)S2)c(=O)n1 [SPD 754]
- Viral Load Decline (log) (HIV viral load [3]; 1200 mg QD, duration of dosing 10): −1.62 log

SMILES: Cc1cn([C@H]2C=C[C@@H](CO)O2)c(=O)[nH]c1=O [D4T, 2′,3′-didehydro-2′,3′-dideoxythymidine]
- Intracellular half life [4]: 3.5 h
- Intracellular [Nuc-PPP] in patients [5]: 0.05 µM
- Ki (wild type HIV-RT): 50 to 300 nM
- Cmax (clinical): 2700 nM
- half-life (clinical): 1.7 h
- Ki (M184V mutant RT): 3000 nM
- EC50 [1]: 50 nM
- EC90 [1]: 350 nM
- IC90 [6]: 6800 nM

SMILES: Cc1cn([C@H]2C[C@H](N=[N+]=[N-])[C@@H](CO)O2)c(=O)[nH]c1=O [AZT, 3′-deoxy-3′-azido-thymidine]
- Viral Load Decline (log) (HIV viral load [3]; 300 mg BD, duration of dosing 14): −0.6 log

SMILES: Nc1nc(=O)n([C@H]2C=C[C@@H](COP(=O)(O)OP(=O)(O)OP(=O)(O)O)O2)cc1F [β-D-D4FC-TP]
- IC50 (DNA Pol γ): 740 nM
- IC50 (HIV RT; pure polymerase, tritiated dCTP incorporation, read-out: IC50): 140 nM
- IC50 (HIV RT; read-out: IC50, wild type purified RT): 67 ± 40 nM
- Intracellular half life [7]: 13 to 17 h
- intracellular half-life [7]: 13 to 17 h
- extracellular concentration at which intracellular conversion to β-D-D4FC-TP plateaus ([7]; PHA-stimulated PBMCs): ~10 µM
- accumulation, % of parent ([7]; in 8-10 hours): ~10%
- Ki (wild type HIV-RT; read-out: Ki WT): 100 nM
- Ki (M184V mutant RT; read-out: Ki M184V): 300 nM
- IC50 (DNA Pol β): 1200 nM

SMILES: Nc1nc(N)c2ncn([C@H]3CO[C@@H](CO)O3)c2n1 [DAPD, β-D-dioxolanyl-2,6-diaminopurine]
- Viral Load Decline (log) (HIV viral load [3]; 300 mg BD, duration of dosing 14, add-on study in experienced patients): −1.5 log
